Laboratory results: US8314068B2, “P2X7 inhibition of epithelial cancers and papillomas” (University Hospitals of Cleveland, priority 2009, dated 2012)
Entries after “also recorded” stand apart in the source; their conditions may differ.

Legend:
[1] = tested on: cancer ectocervical, endocervical, endometrial cells and cancer keratinocytes; conditions: fold lesser apoptosis after BzATP; cited from earlier work
hEVEC cells = assay: Apoptosis in hEVEC cells; type: cell-based, human
mouse skin = assay: Local BzATP on normal mouse dorsal skin, 16 weeks (safety, TUNEL, Ki67); type: in vivo
Experimental: BzATP was applied locally twice a week on the surface of the shaved dorsal skin for a total of 16 weeks. The control group included mice that had their back shaved and were treated only with the vehicle. […] See, FIGS. 14A & 14C versus FIGS. 14B & 14D, respectively.
Image-analysis of immunofluorescence data was described (Li et al, 2007). Representative fields were captured and saved in Adobe Photoshop. Pictures were scanned using UN-SCAN-IT (Silk Scientific, Orem Utah) by choosing 3-5 representative fields for each picture. Light intensity in each field was digitized and average pixel density per field was determined using the program software.
TUNEL assays in tissues cross sections were performed using DeadEnd™ Fluorometric TUNEL System (Promega, Madison, Wis.) according to the manufacturer's protocol. For TUNEL-P2X7 co-staining, tissue cross sections were first assayed for TUNEL, followed by P2X7 immunostaining.
Experiments using mice were done according to an approved CWRU IACUC IRB protocol [2006-0141]. Experiments utilized 6-8 weeks old FVB female mice (obtained from Charles River, Wilmington, Mass.). The animal's dorsal skin (about 3×5 cm) was shaved using Oster animal clipper (Mountain Home, Ark.) followed by weekly application of Nair® hair remover lotion. Treatments included the application of one or more of the following drugs, directly onto the shaved dorsal skin: DMBA (50 μg/200 μl acetone [950 μM, 190 nmol, 3.3 μg/cm^2]); TPA (3 μg/200 μl acetone [20 μM, 4 nmol, 0.2 μg/cm^2]); BzATP (14.3 μg/200 μl of 2.3/1 vol/vol solution of propylene-glycol [PG]/ethanol [EtOH][100 μM, 20 nmol, 1.0 μg/cm^2]); or the BzATP vehicle only (200 μl of PG/EtOH). DMBA was applied once, while TPA and BzATP were applied twice a week. Skin neoplasia in the mice were induced by the “Two-Step” method, which involved tumor initiation by local treatment with 7,12-dimethylbenz(a)anthracene (DMBA), followed by tumor promotion with local treatment of 12-O-tetradecanoylphorbol-13-acetate (TPA). Guo et al., “Disruption of EphA2 receptor tyrosine kinase leads to increased susceptibility to carcinogenesis in mouse skin” Cancer Res 2006, 66:7050-7058. The concentration/dose of BzATP and frequency of treatments were chosen based on data in cultured cells (supra).
From each animal blood samples were obtained from the retro-bulbar venous complex for ALT (SGPT) and AST (SGOT) assays. In addition, dorsal skin strips were obtained from each animal for microscopic H&E tissue evaluation, Ki67 immunostaining, and in-situ detection of DNA fragmentation by the TUNEL method.
Assays used Liquid ALT and Liquid AST reagent sets (Cat # A7526-150a and A7561-150, respectively) obtained from Pointe Scientific (Canton Mich.), and were performed according to the supplier instructions.

WT-MDCK cells = assay: Apoptosis in wild-type MDCK cells lacking P2X7; type: cell-based, canine; conditions: 100 μM, 8 hrs
Description: Human epidermal squamous cell carcinoma-9 (SCC-9) cells and Madin Darby canine kidney cells (MDCK, strain II) were obtained from the ATCC. […] Apoptosis may be quantified in terms of percent solubilized DNA (Wang et al, 2004a), or by using the commercial cell-death detection ELISA kit (Roche Applied Science, Nutley, N.J.) (Feng et al, 2006). […] The sequences of the 20-mer ASO that would hybridize to the coding region of exon 7 (nt 724-741), and the RCO were as follows: […] In the RCO, the antisense sequence was randomly replaced with adenine and thymine residues so that the oligonucleotides had the same length (20-mer) and GC content (33%) as the ASO.

[2] = tested on: mouse wild-type normal keratinocytes; assay: Apoptosis in cultured mouse wild-type keratinocytes; type: cell-based; conditions: 8 hours
[3] = biological solutions, range of temperatures and pH; cited from earlier work
[4] = tested on: DMBA/TPA-induced skin papillomas and squamous spindle-cell carcinomas; assay: DMBA/TPA mouse skin papilloma and cancer model, 28 weeks (Experiment-4); type: in vivo
[5] = tested on: mouse wild-type keratinocytes; assay: Cytosolic calcium (Fluo-4) in mouse wild-type keratinocytes; type: cell-based
Experimental: FIG. 17A: Time course of changes in cytosolic calcium (ΔCa^2+i), in medium containing 1.2 mM Ca^2+ (upper trace) or 1.2 mM Ca2+ plus 1.2 mM EGTA (lower trace).
FIG. 17C: Dose response profile comparison between ΔCa^2+i and Eth-Br influx. Cells were treated with each BzATP concentration for […]. Levels of ΔCa^2+i (empty circles) were determined 2 min after adding BzATP; changes in Eth-Br fluorescence (filled circles) were determined 5 min after adding BzATP. Values=means±SD. Experiments were repeated 3 times. AU=arbitrary units.
Changes in Ca^2+i in cultured cells were determined in terms of changes in intracellular Fluo-4 fluorescence using dynamic confocal laser scanning microscopy. Cultured mouse keratinocytes were loaded with 5 μM Fluo-4/AM, and imaged with a Zeiss LSM 510 inverted real-time confocal microscope. Images were collected at 488 nm/505 nm (exc/emi) at intervals of 10 to 15 seconds after treatment with 100 μM BzATP, added to the perfusate. For ethidium bromide influx experiments, glass-bottomed dishes cultured with mouse keratinocytes were placed in the microscope. Images (collected at 488 nm/505 nm [exc/emi]) were taken before, and at intervals of 30 seconds after adding 5 μM ethidium bromide to the perfusate as described. Average fluorescence intensity was quantified from collated images using MetaVue software (Fryer Company Inc., Huntley, Ill.) by subtracting the basal intensity value.

## Nc1ncnc2c1ncn2[C@@H]1O[C@H](COP(=O)(O)OP(=O)(O)OP(=O)(O)O)[C@@H](OC(=O)c2ccc(C(=O)c3ccccc3)cc2)[C@H]1O [BzATP, 3′-O-(4-benzoylbenzoyl)adenosine triphosphate]
[1]
  apoptosis in cancer cells relative to the respective normal cells: 2-5 fold
hEVEC cells
  increase of apoptosis by BzATP: 2.5 fold
Mouse skin; 16 weeks
  Ki67 immunoreactivity versus control group: no significant differences in Ki67 immunoreactivity
  histological evaluation of dorsal skin versus control group: no differences
  mean serum levels of ALT (SGPT) and AST (SGOT): in the normal range for the mouse
Mouse skin; 16 weeks, n=3
  TUNEL pixel density, hair-shaft cross sections: 6.1±0.8
  TUNEL staining mean pixel density (±SD), epidermis: 5.2±0.3
Mouse skin; 16 weeks, normal mice
  thinning or ulceration of the skin: did not produce a thinning or ulceration of the skin
Mouse skin; mice, applied locally on the skin
  local or systemic adverse effects of local BzATP treatment: did not result in any local or systemic adverse events; also recorded: no adverse systemic effects; also recorded: no significant effect on the behavior of the animals, feeding habits, body weight, and liver functions; also recorded: did not produce local or systemic adverse effects
Mouse skin; twice a week, 16 weeks, local
  behavior, feeding habits, body weights: no effects were observed
  gross appearance of the treated skin: no noticeable effect
WT-MDCK cells
  BzATP-induced apoptosis: did not induce apoptosis
[2]
  concentration of maximal apoptosis effect: 100 to 250 µM
  lowest BzATP level at which apoptosis effects began: 50 nM
[2]; Mus musculus, Keratinocyte, read-out: estimated EC50 of apoptosis augmentation
  EC50: ~10 µM
[3]
  stability: relatively stable compound in biological solutions and across a broad range of temperatures and pH
[4]; 1 μg/cm^2 BzATP applied locally twice weekly
  inhibition of papilloma and skin cancer formation: 50%
[4]; immunoreactivity in cross sections
  effect on P2X7 receptor expression in skin cancers: did not effect P2X7 receptor expression in cancer cells
[4]; log-rank test
  overall survival rates versus DMBA/TPA group: did not differ statistically
[4]; mouse, in vivo
  TUNEL staining in papillomas and cancer tissues versus DMBA/TPA group: more intense
  development of cancerous lesions (time-to-event) versus DMBA/TPA group: significantly slower and lower
  proportion of living animals with cancerous lesions >200 mm^3, difference to DMBA/TPA group: did not reach statistical significance
[4]; week 5, DMBA/TPA+BzATP group
  proportion of living animals having a papilloma: 48±12%
[4]; week 10, DMBA/TPA+BzATP group
  papillomas per animal (mean±SD): 1.2±0.4
[4]; week 12, DMBA/TPA+BzATP group
  mean total papillomas size per animal (mean±SD): 3.4±1.0 mm^3
[4]; week 14, mice co-treated with BzATP
  proportion of animals with cancers: 50%
[4]; week 28, DMBA/TPA+BzATP group
  proportion of living animals with cancerous lesions: 43±9%
  proportion of living animals with cancerous lesions >10 mm^3: 16±4%
[4]; week 28, co-treated with BzATP
  lowering of incidence of cancerous lesions: about 50%
[4]; weeks 0-12, co-treated with BzATP
  lowering of incidence of papillomas: about 50%
[4]; weeks 14-28
  effect on number of cancerous lesions per animal: little effect
[5]
  concentration of pre-maximal response, cytosolic calcium: 100 to 250 µM
  threshold concentration, cytosolic calcium: 50 to 100 nM
[5]; 100 μM BzATP, 1.2 mM Ca^2+
  change in cytosolic calcium: acute increase in cytosolic calcium
  duration of increase in cytosolic calcium: at least 6 minutes
